Data: article PMC8179002, “Inhibitors of thiol-mediated uptake” (Chemical Science, 2020)
Read-outs that look alike come from different tables or passages of the source. Bridge positions count the residues as written; N and C are the ends. Peptide text beside a SMILES is read from it.

Key:
[1] = tested on: A549 human lung alveolar basal epithelium cells overexpressing ACE2 and TMPRSS2; conditions: Fig. S44
[2] = Relative cell viability in HCHT screening (propidium iodide negative nuclei count); type: cell-based; conditions: human, HeLa, read-out: GI50, concentration causing 50% cell growth inhibition
Protocol: (§1) With COCs 1 and 2 as cell-penetrating reporters, a fully automated, fluorescent microscopy image-based high-content high-throughput (HCHT)[19] inhibitor screening assay was developed. HeLa cells in multiwell plates are incubated with a reporter at constant and inhibitors at varying concentrations and incubation times. Hindered reporter uptake then causes decrease of fluorescence inside of cells (Fig. 3a). Automated data analysis[19] was established to extract average fluorescence intensity per cell and, at the same time, cell viability from propidium iodide negative nuclei count (Fig. 3 and S3–S6 ^†). Standard assay conditions consisted of pre-incubation of HeLa cells with inhibitors for different periods of time, followed by the removal of inhibitors and the addition of reporters, thus excluding possible interactions between the two in the extracellular environment. In alternative co-incubation conditions, inhibitors were not removed before the addition of reporters to allow for eventual interactions between the two.
(§2) To be able to extract the fluorescent integrated intensity information (sum of the intensities of all the pixels included in the mask) from the green channel for live cell only, the image analysis pipeline contains several steps of cell filtering and selection:
(§3) 1) Firstly, PI is used to stain any remaining nuclei of dead cell. In the analysis pipeline, all the “dead” nuclei are detected based on their fluorescent intensity in the PI channel (Figure […]
(§4) Fig. S4 (A) PI positive nuclei mask (fluorescent intensity threshold of 1000). (B) Overlap image of dead nuclei mask and original all cell body mask. (C) Resulting cell mask after removing any cell marked by a dead nucleus, new mask is called “Live Cell”. Scale bar: 50 μm.
(§5) 2) Elimination of non-full cells from the border of the image is performed, to avoid inaccurate fluorescent integrated intensity quantification (fluorescent integrated intensity = sum of intensity of all the pixel of the object) (Figure S5).
(§6) (1 picture or pasted object on this page, not shown here)
(§7) 4.3. HCHT Inhibitor Screening with ETP as Reporter […]
(§8) Relative cell viability (RV) for each condition in the presence of inhibitors were calculated using the count value of living cells by dividing the count value of living cells with addition of reporter 1, Hoechst 33342 and PI, for each set of experiments. Duplicates were performed for each condition. The resulting dependence of the relative cell viability (RVrel) to the concentration of inhibitors (cinhibitor) was plotted and fitted with Equation (S2) to retrieve the concentration causing 50% cell growth inhibition (GI50) value and the Hill coefficient (n).
(§9) RVrel = 1 / (1 + (GI50 / cinhibitor)n) (S2)
(§10) Note: Reporter 1 were not toxic for 1 h at 10 μM.S2 Also in this study, the count value of living cells with addition of reporter 1, Hoechst 33342 and PI is always similar to that of living cells with only addition of Hoechst 33342 and PI.
as §8, with “with” for “in the presence of”, “2,” for “1,”
(§11) Note: Reporter 2 were not toxic for 24 h at 10 μM.S3 Also in this study, the count value of living cells with addition of reporter 2, Hoechst 33342 and PI is always similar to that of living cells with only addition of Hoechst 33342 and PI.
(§12) 4.4.1. Screening with Disulfides as Inhibitors
(§13) 4.4.1.1. Screening with ETP as Inhibitors
(§14) Fig. S35 Automatically analyzed HCHT data showing fluorescence intensity (filled symbols) and relative viability (empty symbols) of HeLa cells after pre-incubation with 3 for 1 h (blue […]

[3] = trans to cis isomer 22; Fig. S46
HeLa Kyoto cells = assay: Relative cell viability in HCHT screening (propidium iodide negative nuclei count); type: cell-based; conditions: HeLa, removal, tinc 0.5 h with 1 (10 µM), read-out: GI50, concentration causing 50% cell growth inhibition
Protocol: as §1, §2, §3, §4, §5, §6, §7, §8, §9, §10
as §8, with “with” for “in the presence of”, “2,” for “1,”
as §11, §12, §13, §14

[4] = tpre 0.5 h, then tco 0.5 h co-incubation of inhibitor and 1 (10 µM)
[5] = tpre 0.5 h, then tco 0.5 h co-incubation of inhibitor and 2 (10 µM)
[6] = tpre 0.5 h with inhibitor, removal, tinc 0.5 h with 1 (10 µM)
[7] = tpre 1 h with inhibitor, removal, tinc 0.5 h with 1 (10 µM)
[8] = tpre 1 h with inhibitor, removal, tinc 0.5 h with 2 (10 µM)
[9] = tpre 2 h with inhibitor, removal, tinc 0.5 h with 1 (10 µM)
[10] = tpre 4 h with inhibitor, removal, tinc 0.5 h with 1 (10 µM)
[11] = tpre 5.5 h with FBS, then tco 0.5 h co-incubation of inhibitor and 1 (10 µM)
[12] = tpre 6 h with FBS, removal, tinc 0.5 h with 2 (10 µM)
[13] = tpre 23.5 h with FBS, then tco 0.5 h co-incubation of inhibitor and 1 (10 µM)
[14] = tpre 4 h with inhibitor, removal, tinc 0.5 h with 2 (10 µM)
[15] = tpre 23.5 h with FBS, then tco 0.5 h co-incubation of inhibitor and 2 (10 µM)
[16] = HeLa Kyoto cells, tpre 0.5 h, then tco 0.5 h co-incubation of inhibitor and 2 (10 µM)
[17] = HeLa Kyoto cells, tpre 0.5 h with inhibitor, removal, tinc 0.5 h with 1 (10 µM)
[18] = HeLa Kyoto cells, tpre 1 h with inhibitor, removal, tinc 0.5 h with 1 (10 µM)
[19] = HeLa Kyoto cells, tpre 1 h with inhibitor, removal, tinc 0.5 h with 2 (10 µM)
[20] = HeLa Kyoto cells, tpre 1.5 h, then tco 0.5 h co-incubation of inhibitor and 2 (10 µM)
[21] = HeLa Kyoto cells, tpre 2 h with inhibitor, removal, tinc 0.5 h with 1 (10 µM)
[22] = HeLa Kyoto cells, tpre 2 h with inhibitor, removal, tinc 0.5 h with 2 (10 µM)
[23] = HeLa Kyoto cells, tpre 4 h with inhibitor, removal, tinc 0.5 h with 2 (10 µM)

Structure (SMILES)	GI50 [2, 4]	GI50 [2, 5]	GI50 [2, 6]	GI50 [2, 7]	GI50 [2, 9]	GI50 [2, 10]	GI50 [2, 11]	GI50 [2, 12]	GI50 [2, 13]	GI50 [2, 14]	also measured
CCN1C(=O)C2SSSSC1C(=O)N2CC(=O)O (stereo not shown) [compound 3]	13.3 ± 0.8 µM	~20 µM	34 ± 2.9 µM	35 ± 4.4 µM	46.1 ± 4.8 µM	> 50 µM	> 50 µM	> 100 µM	> 50 µM	–	Concentration at which toxicity was detected [1]: 50 µM; GI50 [2, 8]: > 20 µM
CCN1C(=O)C2SSC1C(=O)N2CC(=O)O (stereo not shown) [compound 4]	~8.4 µM	~20 µM	> 100 µM	12.5 ± 0.7 µM	~9.2 µM	6.4 ± 0.3 µM	> 20 µM	–	> 20 µM	~4 µM	GI50 [2, 8]: > 20 µM
O=C(O)CNC(=O)c1ccc2c(c1)SSSSS2 [compound 6]	> 20 µM	> 20 µM	> 100 µM	~98 µM	~45 µM	~44 µM	> 20 µM	~105 µM	> 20 µM	~17 µM	–
O=C(CN1C(=O)C2SSC1C(=O)N2CCOc1ccccc1)NCC(=O)OC[C@H]1OC(O)[C@H](O)[C@@H](O)[C@@H]1O (stereo partly shown) [compound 7]	–	–	> 100 µM	> 100 µM	> 100 µM	–	> 100 µM	> 200 µM	> 100 µM	> 100 µM	GI50 [2, 15]: > 100 µM
O=C(O)CC[C@H](NC(=O)CN1C(=O)C2SSC1C(=O)N2CCOc1ccccc1)C(=O)O (stereo partly shown) [compound 9]	–	–	> 100 µM	> 100 µM	> 100 µM	–	–	> 200 µM	–	> 100 µM	–
O=C(O)CC[C@H](NC(=O)CCCCC1CCSS1(=O)=O)C(=O)O (stereo partly shown) [compound 15]	–	–	> 500 µM	> 500 µM	> 500 µM	–	> 1000 µM	–	944 ± 60 µM	> 500 µM	GI50 [2, 15]: > 500 µM
O=S1(=O)C[C@H](O)[C@H](O)CS1 [compound 16]	–	–	–	1300 ± 490 µM	–	–	> 1000 µM	–	490 ± 60 µM	> 500 µM	Concentration at which toxicity was detected [1]: 500 µM
[O-][S+]1CC(O)C(O)CS1 (stereo not shown) [compound 17]	> 500 µM	–	–	–	–	–	> 1000 µM	–	450 ± 50 µM	–	Isomerization [3]: isomerized with time; GI50 (HeLa Kyoto cells; tpre 1 h with inhibitor): 710 ± 50 µM; GI50 (HeLa Kyoto cells; tpre 2 h with inhibitor): 730 ± 10 µM; GI50 (HeLa Kyoto cells; tpre 4 h with inhibitor): ~500 µM
N[C@H]1CSSC[C@@H](C(=O)NCC(=O)O)NC(=O)[C@H](CCC(=O)O)NC1=O [compound 18] (H-CECG-OH; disulfide 1-3)	–	–	–	–	–	–	–	–	–	–	GI50 at 1 h ([2]; HeLa Kyoto cells, tpre 0.5 h, then tco 0.5 h co-incubation of inhibitor and 1 (10 µM)): > 500 µM; GI50 at 1 h [2, 16]: > 500 µM; GI50 at 0.5 h [2, 17]: > 2000 µM; GI50 at 1 h [2, 18]: > 2000 µM; GI50 at 1 h [2, 19]: > 1000 µM; GI50 at 2 h [2, 20]: > 500 µM; GI50 at 2 h [2, 21]: > 2000 µM; GI50 at 2 h [2, 22]: > 1000 µM; GI50 at 4 h [2, 23]: > 1000 µM; GI50 at 6 h ([2]; HeLa Kyoto cells, tpre 5.5 h with FBS, then tco 0.5 h co-incubation of inhibitor and 1 (10 µM)): > 1000 µM; GI50 at 24 h ([2]; HeLa Kyoto cells, tpre 23.5 h with FBS, then tco 0.5 h co-incubation of inhibitor and 1 (10 µM)): > 1000 µM
N[C@H]1CSSC[C@@H](C(=O)N[C@@H](CCC(=O)O)C(=O)O)NC(=O)CNC1=O [compound 19] (H-CGCE-OH; disulfide 1-3)	–	–	–	–	–	–	–	–	–	–	GI50 at 1 h [2, 16]: > 500 µM; GI50 at 0.5 h [2, 17]: > 2000 µM; GI50 at 1 h [2, 18]: > 2000 µM; GI50 at 1 h [2, 19]: > 1000 µM; GI50 at 2 h [2, 20]: > 500 µM; GI50 at 2 h [2, 21]: > 2000 µM; GI50 at 2 h [2, 22]: > 1000 µM; GI50 at 4 h [2, 23]: > 1000 µM
